Experimental data published in patent US8916551B2, “Heterocyclic compound and use thereof” (Takeda Pharmaceutical Company Limited, priority 2010, dated 2014).

System: methamphetamine (MAP)-induced hyperlocomotion in mice
Assay: Inhibition of methamphetamine (MAP)-induced hyperlocomotion
Type: in vivo
Details: male ICR mice; compound 10 mg/kg p.o. 60 min before MAP 2 mg/kg s.c.; counts 120 min after MAP
Protocol: Male ICR mice were supplied by CLEA Japan, Inc (Japan). After arrival to the vivarium, animals were allowed a minimum of 1 week for acclimation. They were housed under a 12:12-h light/dark cycle in a temperature- and humidity-controlled laboratory and allowed food and water ad libitum.
A test compound was suspended in 0.5% methylcellulose in distilled water and orally administered (p.o.). Methamphetamine (Dainippon Sumitomo Pharma Co., Ltd.) was dissolved in saline and subcutaneously administered (s.c.). All drugs were dosed in a volume of 10 mL/kg body weight for mice.
The widely used animal models of psychosis have been the measurement of the extent of hyperlocomotion induced by psychostimulants (e.g., amphetamine, cocaine, methamphetamine, MK-801 and phencyclidine) in rodents (Psychopharmacology 1999, vol. 145: 237-250). 4 compounds (A, B, C, D) were tested for its ability to antagonize MAP-induced hyperlocomotion in mice. Male ICR mice were habituated in the locomotor chambers with infrared sensors (BrainScienceldea Co., Ltd. Japan) to the experiment. After the habituation, animals were treated with either vehicle or the compounds (10 mg/kg, p.o.), and MAP (2 mg/kg, s.c.) was administrated 60 min later. Locomotion activities were measured, and accumulated counts (120 min after administration of MAP) were calculated in each treatment group. All data were represented as means plus the standard errors of the means (n=3-9) and analyzed using Student's t-test with significance set at **P<0.01 and ***P<0.001 or Welch's t-test with significance set at ^$P<0.05, ^$$P<0.01 and ^$$$P<0.001.

| SMILES | inhibition of MAP-induced hyperlocomotion (accumulated locomotion counts 0-120 min) |
| --- | --- |
| O=S1(=O)CCN2C=CC=C(c3ccc(Oc4ccccc4)cc3)C2=N1 [A, 9-(4-phenoxyphenyl)-3,4-dihydropyrido[2,1-c][1,2,4]thiadiazine 2,2-dioxide] | significant inhibition |
| Cc1ccc(Oc2ccc(C3=CC=CN4CCS(=O)(=O)N=C34)cc2)cc1 [B, 9-[4-(4-methylphenoxy)phenyl]-3,4-dihydropyrido[2,1-c][1,2,4]thiadiazine 2,2-dioxide] | significant inhibition |
| CC1=CN2CCS(=O)(=O)N=C2C(c2ccc(OC3CCCCC3)cc2)=N1 [C, 9-[4-(cyclohexyloxy)phenyl]-7-methyl-3,4-dihydropyrazino[2,1-c][1,2,4]thiadiazine 2,2-dioxide] | significant inhibition |
| O=S1(=O)CCN2C=CC=C(c3ccc(OC4CCCCC4)cc3)C2=N1 [D, 9-[4-(cyclohexyloxy)phenyl]-3,4-dihydropyrido[2,1-c][1,2,4]thiadiazine 2,2-dioxide] | significant inhibition |
